The first assay concerns the target KRAS G12C (Homo sapiens (Human), UniProt P01116, C118A/G12C). Description: 2 h coupled exchange assay. In kind it is biochemical. As to conditions: Avg 2 h Coupled exchange IC50, 2 h compound pre-incubation. The method, then:
The term “2 h coupled exchange assay” or “20 h coupled exchange assay” as used herein refers to the assay described in the Section entitled “BIOLOGICAL EVALUATION.”
Chain of KRAS G12C (P01116 other isoform, or with tags, fused parts or gaps G12C/C118A): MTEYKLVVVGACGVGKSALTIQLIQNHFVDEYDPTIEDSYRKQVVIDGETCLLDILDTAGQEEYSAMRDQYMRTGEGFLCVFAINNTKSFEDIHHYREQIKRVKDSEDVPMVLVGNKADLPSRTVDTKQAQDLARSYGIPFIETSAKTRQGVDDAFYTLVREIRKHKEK
Molecule `C=CC(=O)N1CC2(CCN(c3nc4c(c(-c5c(C)ccc6cnn(C)c56)c3F)COC(C)(C)C4)C2)C1` (single isomer, unassigned) [Example 14-102, (P)-1-(6-(4-(1,6-dimethyl-1H-indazol-7-yl)-3-fluoro-7,7-dimethyl-7,8-dihydro-5H-pyrano[4,3-b]pyridin-2-yl)-2,6-diazaspiro[3.4]octan-2-yl)-2-propen-1-one] came in with an IC50 of 55.6 µM.
Same read-out and setting: with `C=CC(=O)N1CC2(CCN(c3nc4cc(-n5ccnc5C)ccc4c(-c4ccccc4Cl)c3C)[C@H]2C)C1` (single isomer, unassigned) [Example 15-5] the figure was 0.779 µM.
In the case of `C=CC(=O)N1CC2(CCN(c3nc4cc(-n5ccnc5C)ccc4c(-c4ccccc4Cl)c3C)[C@H]2C)C1` (single isomer, unassigned) [Example 15-6], the IC50 was 3.58 µM. This IC50 lies about 4.6-fold higher than the previous one.

Still in this assay, the particulars now being: Avg 2 h Coupled exchange IC50, 2 h compound pre-incubation, SOS-mediated nucleotide exchange.
Regarding `C=CC(=O)N1CC2(CCN(c3cn4ccnc4c(-c4cc(O)ccc4C)c3C#N)C2)C1` [Example 1-29, 8-(5-hydroxy-2-methylphenyl)-6-(2-(2-propenoyl)-2,6-diazaspiro[3.4]octan-6-yl)imidazo[1,2-a]pyridine-7-carbonitrile], inhibition was half-maximal at 3.53 µM (IC50).
Same read-out and setting: with `C=CC(=O)N1CC2(C1)CN(c1cc3ccccc3c(-c3c(C)ccc4[nH]ncc34)c1C#N)C2` [Example 1-34, 1-(5-methyl-1H-indazol-4-yl)-3-(6-(2-propenoyl)-2,6-diazaspiro[3.3]heptan-2-yl)-2-naphthalenecarbonitrile] the figure was 0.823 µM; with `C=CC(=O)N1CC2(CCN(c3nc(-c4c(C)ccc5[nH]ncc45)c4ccc(C)cc4n3)C2)C1` [Example 1-40, 1-(6-(7-methyl-4-(5-methyl-1H-indazol-4-yl)-2-quinazolinyl)-2,6-diazaspiro[3.4]octan-2-yl)-2-propen-1-one], 9.01 µM; with `C=C(Br)C(=O)N1CC2(CCN(c3nc4c(F)cccc4c(-c4c(C)ccc5[nH]ncc45)c3C#N)C2)C1` [Example 1-51, 2-(2-(2-bromo-2-propenoyl)-2,6-diazaspiro[3.4]octan-6-yl)-8-fluoro-4-(5-methyl-1H-indazol-4-yl)-3-quinolinecarbonitrile], 0.791 µM.
`C=CC(=O)N1CC2(CCN(c3nc4c(c(-c5ccccc5F)c3C#N)CCCC4)C2)C1` [Example 2-7, 4-(2-fluorophenyl)-2-(2-(2-propenoyl)-2,6-diazaspiro[3.4]octan-6-yl)-5,6,7,8-tetrahydro-3-quinolinecarbonitrile] gave a 50% inhibitory concentration (IC50) of 2.02 µM.
Still for that read-out and setting: as for `C=CC(=O)N1CC2(CCN(c3nc4c(c(-c5cc(O)cc(C(F)(F)F)c5F)c3C)CCC(C)(C)C4)C2)C1` [Example 2-22, 1-(6-(4-(2-fluoro-5-hydroxy-3-(trifluoromethyl)phenyl)-3,7,7-trimethyl-5,6,7,8-tetrahydro-2-quinolinyl)-2,6-diazaspiro[3.4]octan-2-yl)-2-propen-1-one], the figure is 0.846 µM.
Take `C=CC(=O)N1CC2(CCN(c3nc4c(c(-c5c(C)ccc6cn[nH]c56)c3C)CCC(C)(C)C4)C2)C1` [Example 2-23, 1-(6-(3,7,7-trimethyl-4-(6-methyl-1H-indazol-7-yl)-5,6,7,8-tetrahydro-2-quinolinyl)-2,6-diazaspiro[3.4]octan-2-yl)-2-propen-1-one]: the IC50 came out at 0.735 µM.
For `C=CC(=O)N1CC2(CCN(c3nc4c(c(-c5cc(O)cc(F)c5F)c3C)CCC(C)(C)C4)C2)C1` [Example 2-26, 1-(6-(4-(2,3-difluoro-5-hydroxyphenyl)-3,7,7-trimethyl-5,6,7,8-tetrahydro-2-quinolinyl)-2,6-diazaspiro[3.4]octan-2-yl)-2-propen-1-one], inhibition was half-maximal at 0.234 µM (IC50). This IC50 lies about 3.1-fold lower than the previous one.
`C=CC(=O)N1CC2(CCN(c3nc4ccccc4c(-c4c(Cl)ccc5[nH]ncc45)c3C)C2)C1` [Example 2-29, 1-(6-(4-(5-chloro-1H-indazol-4-yl)-3-methyl-2-quinolinyl)-2,6-diazaspiro[3.4]octan-2-yl)-2-propen-1-one] displayed an IC50 of 0.903 µM.
On the same count and under the same terms, as for `C=CC(=O)N1CC2(CCN(c3nc4c(c(-c5cccc6ccn(C)c56)c3C#N)COC(C)(C)C4)C2)C1` [Example 2-30, 7,7-dimethyl-4-(1-methyl-1H-indol-7-yl)-2-(2-(2-propenoyl)-2,6-diazaspiro[3.4]octan-6-yl)-7,8-dihydro-5H-pyrano[4,3-b]pyridine-3-carbonitrile], the figure is 0.75 µM; as for `C=CC(=O)N1CC2(CCN(c3nc4c(c(-c5cc(Cl)cc6cnn(C)c56)c3C)COC(C)(C)C4)C2)C1` [Example 2-32, 1-(6-(4-(5-chloro-1-methyl-1H-indazol-7-yl)-3,7,7-trimethyl-7,8-dihydro-5H-pyrano[4,3-b]pyridin-2-yl)-2,6-diazaspiro[3.4]octan-2-yl)-2-propen-1-one], 0.808 µM.
On the same count and under the same terms, with `C=CC(=O)N1CC2(CCN(c3nc4c(c(-c5cc(O)ccc5Cl)c3C)COC(C)(C)C4)C2)C1` [Example 2-35, 1-(6-(4-(2-chloro-5-hydroxyphenyl)-3,7,7-trimethyl-7,8-dihydro-5H-pyrano[4,3-b]pyridin-2-yl)-2,6-diazaspiro[3.4]octan-2-yl)-2-propen-1-one] the figure was 0.186 µM.
Still for that read-out and setting: as for `C=CC(=O)N1CC2(CCN(c3nc4c(c(-c5cc(O)ccc5C)c3C#N)C3CCC4C3)C2)C1` [Example 2-37, (1R,8S)-6-(5-hydroxy-2-methylphenyl)-4-(2-(2-propenoyl)-2,6-diazaspiro[3.4]octan-6-yl)-3-azatricyclo[6.2.1.0^2,7]undeca-2,4,6-triene-5-carbonitrile|(1S, 8R)-6-(5-hydroxy-2-methylphenyl)-4-(2-(2-propenoyl)-2,6-diazaspiro[3,4]octan-6-yl)-3-azatricyclo[6.2.1.0^2.7]undeca-2,4,6-triene-5-carbonitrile], the figure is 0.298 µM; as for `C=CC(=O)N1CC2(CCN(c3nc4c(c(-c5cc(O)cc6ccncc56)c3C#N)C[C@H]3C[C@@H]4C3(C)C)C2)C1` [Example 2-41, (1R,9R)-6-(6-hydroxy-8-isoquinolinyl)-10,10-dimethyl-4-(2-(2-propenoyl)-2,6-diazaspiro[3.4]octan-6-yl)-3-azatricyclo[7.1.1.0^2,7]undeca-2,4,6-triene-5-carbonitrile], 0.113 µM.
Molecule `C=CC(=O)N1CC2(CCN(c3nc4c(c(-c5cc(O)cc6cccnc56)c3C#N)C[C@H]3C[C@@H]4C3(C)C)C2)C1` [Example 2-43, (1R,9R)-6-(6-hydroxy-8-quinolinyl)-10,10-dimethyl-4-(2-(2-propenoyl)-2,6-diazaspiro[3,4]octan-6-yl)-3-azatricyclo[7.1.1.0^2,7]undeca-2,4,6-triene-5-carbonitrile] gave an IC50 of 0.193 µM.
The same measure, in the same setting: as for `C=CC(=O)N1CC2(CCN(c3nc4cc(OC)cnc4c(-c4c(C)ccc5[nH]ncc45)c3C)C2)C1` [Example 2-51, 1-(6-(7-methoxy-3-methyl-4-(5-methyl-1H-indazol-4-yl)-1,5-naphthyridin-2-yl)-2,6-diazaspiro[3.4]octan-2-yl)-2-propen-1-one], the figure is 0.267 µM.
On the same count and under the same terms, with `C=CC(=O)N1CC2(CCN(c3nc4c(c(-c5ccccc5Cl)c3C#N)C[C@H]3C[C@@H]4C3(C)C)C2)C1` [Example 2-63, (1R,9R)-6-(2-chlorophenyl)-10,10-dimethyl-4-(2-(2-propenoyl)-2,6-diazaspiro[3.4]octan-6-yl)-3-azatricyclo[7.1.1.0^2,7]undeca-2,4,6-triene-5-carbonitrile] the figure was 0.793 µM; with `C=CC(=O)N1CC2(CCN(c3nc4c(c(-c5cc(CO)ccc5Cl)c3C#N)C[C@H]3C[C@@H]4C3(C)C)C2)C1` [Example 2-65, (1R,9R)-6-(2-chloro-5-(hydroxymethyl)phenyl)-10,10-dimethyl-4-(2-(2-propenoyl)-2,6-diazaspiro[3.4]octan-6-yl)-3-azatricyclo[7.1.1.0^2,7]undeca-2,4,6-triene-5-carbonitrile], 0.735 µM; with `C=CC(=O)N1CC2(CCN(c3nc4c(c(-c5cccc(F)c5O)c3C#N)C[C@H]3C[C@@H]4C3(C)C)C2)C1` [Example 2-70, (1R,9R)-6-(3-fluoro-2-hydroxyphenyl)-10,10-dimethyl-4-(2-(2-propenoyl)-2,6-diazaspiro[3.4]octan-6-yl)-3-azatricyclo[7.1.1.0^2,7]undeca-2,4,6-triene-5-carbonitrile], 1.34 µM.
Same read-out and setting: with `C=CC(=O)N1CC2(CCN(c3nc4c(c(-c5cccc6c(O)cccc56)c3C)COC(C)(C)C4)C2)C1` [Example 2-82, 1-(6-(4-(5-hydroxy-1-naphthalenyl)-3,7,7-trimethyl-7,8-dihydro-5H-pyrano[4,3-b]pyridin-2-yl)-2,6-diazaspiro[3,4]octan-2-yl)-2-propen-1-one] the figure was 0.641 µM; with `C=CC(=O)N1CC2(CCN(c3nc4c(c(-c5c(C)ccc6cnn(C)c56)c3Cl)COC(C)(C)C4)C2)C1` [Example 2-86, 1-(6-(3-chloro-4-(1,6-dimethyl-1H-indazol-7-yl)-7,7-dimethyl-7,8-dihydro-5H-pyrano[4,3-b]pyridin-2-yl)-2,6-diazaspiro[3.4]octan-2-yl)-2-propen-1-one], 6.15 µM.
In turn, `C=CC(=O)N1CC2(CCN(c3nc4c(c(-c5c(C)c(Cl)cc6[nH]ncc56)c3Cl)COC(C)(C)C4)C2)C1` [Example 2-92, 1-(6-(3-chloro-4-(6-chloro-5-methyl-1H-indazol-4-yl)-7,7-dimethyl-7,8-dihydro-5H-pyrano[4,3-b]pyridin-2-yl)-2,6-diazaspiro[3.4]octan-2-yl)-2-propen-1-one] registered an IC50 of 0.021 µM. This IC50 lies about 290-fold lower than the previous one.
Still for that read-out and setting: as for `Cc1ccc2[nH]ncc2c1-c1c(C#N)c(N2CCC3(CN(C(=O)/C=C/CN(C)C)C3)C2)cc2c1COCC2` [Example 2-94, 6-(2-((2E)-4-(dimethylamino)-2-butenoyl)-2,6-diazaspiro[3.4]octan-6-yl)-8-(5-methyl-1H-indazol-4-yl)-3,4-dihydro-1H-2-benzopyran-7-carbonitrile], the figure is 0.61 µM.
The same measure, in the same setting: with `C=CC(=O)N1CC2(CCN(c3cc4c(c(-c5c(C)ccc6cnn(C)c56)c3Cl)OCCC4)C2)C1` [Example 2-102, 1-(6-(7-chloro-8-(1,6-dimethyl-1H-indazol-7-yl)-3,4-dihydro-2H-chromen-6-yl)-2,6-diazaspiro[3.4]octan-2-yl)-2-propen-1-one] the figure was 0.07 µM.

The values above are taken from US20240059703A1 (AMGEN INC., priority 2021, published 2024).
